≈ marks a conversion by molar mass, not a printed value. Where two headings read alike, the source gives them in different places.
Legend:
[1] = system: Acinetobacter calcoaceticus ATCC 15473; assay: Antibacterial activity, MIC; format: cell-based; conditions: ATCC15473, ATCC 15473, agar two-fold dilution, 37° C., 20 hours, read-out: MIC
Outline: (§1)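 Agar two-fold dilution method: compound serially diluted two-fold in Mueller-Hinton agar, spotted with 2 μl of a 10^7 CFU/ml inoculum of each standard strain, then incubated at 37 °C for 20 h.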

[2] = system: Bacillus cereus ATCC 11778; assay: Antibacterial activity, MIC; format: cell-based; conditions: ATCC11778, ATCC 11778, agar two-fold dilution, 37° C., 20 hours, read-out: MIC
Outline: as §1

[3] = system: Bacillus megaterium ATCC 9885; assay: Antibacterial activity, MIC; format: cell-based; conditions: Priestia megaterium, ATCC9885; ATCC 9885; agar two-fold dilution, 37° C., 20 hours; read-out: MIC
Outline: as §1

[4] = system: Citrobacter freundii ATCC 8090; assay: Antibacterial activity, MIC; format: cell-based; conditions: ATCC8090, ATCC 8090, agar two-fold dilution, 37° C., 20 hours, read-out: MIC
Outline: as §1

[5] = system: Enterobacter aerogenes ATCC 29751; assay: Antibacterial activity, MIC; format: cell-based; conditions: Klebsiella aerogenes, ATCC29751; ATCC 29751; agar two-fold dilution, 37° C., 20 hours; read-out: MIC
Outline: as §1

[6] = system: Enterobacter cloacae ATCC 27508; assay: Antibacterial activity, MIC; format: cell-based; conditions: ATCC27508, ATCC 27508, agar two-fold dilution, 37° C., 20 hours, read-out: MIC
Outline: as §1

[7] = system: Escherichia coli ATCC 10536; assay: Antibacterial activity, MIC; format: cell-based; conditions: ATCC10536, agar two-fold dilution, 37° C., 20 hours
Outline: as §1

[8] = system: Escherichia coli ATCC 25922; assay: Antibacterial activity, MIC; format: cell-based; conditions: ATCC25922, agar two-fold dilution, 37° C., 20 hours
Outline: as §1

[9] = system: Klebsiella pneumoniae ATCC 10031; assay: Antibacterial activity, MIC; format: cell-based; conditions: ATCC10031, ATCC 10031, agar two-fold dilution, 37° C., 20 hours, read-out: MIC
Outline: as §1

[10] = system: Micrococcus luteus ATCC 9341; assay: Antibacterial activity, MIC; format: cell-based; conditions: ATCC9341, ATCC 9341, agar two-fold dilution, 37° C., 20 hours, read-out: MIC
Outline: as §1

[11] = system: Morganella morganii ATCC 8076h; assay: Antibacterial activity, MIC; format: cell-based; conditions: ATCC8076H, agar two-fold dilution, 37° C., 20 hours
Outline: as §1

[12] = system: Proteus mirabilis ATCC 25933; assay: Antibacterial activity, MIC; format: cell-based; conditions: ATCC25933, ATCC 25933, agar two-fold dilution, 37° C., 20 hours, read-out: MIC
Outline: as §1

[13] = system: Proteus vulgaris ATCC 6059; assay: Antibacterial activity, MIC; format: cell-based; conditions: ATCC6059, ATCC 6059, agar two-fold dilution, 37° C., 20 hours, read-out: MIC
Outline: as §1

[14] = system: Providencia rettgeri ATCC 9250; assay: Antibacterial activity, MIC; format: cell-based; conditions: ATCC9250, agar two-fold dilution, 37° C., 20 hours
Outline: as §1

[15] = system: Pseudomonas aeruginosa ATCC 10145; assay: Antibacterial activity, MIC; format: cell-based; conditions: ATCC10145, ATCC 10145, agar two-fold dilution, 37° C., 20 hours, read-out: MIC
Outline: as §1

[16] = system: Pseudomonas aeruginosa ATCC 25619; assay: Antibacterial activity, MIC; format: cell-based; conditions: ATCC25619, ATCC 25619, agar two-fold dilution, 37° C., 20 hours, read-out: MIC
Outline: as §1

[17] = system: Pseudomonas aeruginosa ATCC 27853; assay: Antibacterial activity, MIC; format: cell-based; conditions: ATCC27853, ATCC 27853, agar two-fold dilution, 37° C., 20 hours, read-out: MIC
Outline: as §1

[18] = system: Salmonella typhimurium ATCC 14028; assay: Antibacterial activity, MIC; format: cell-based; conditions: Salmonella enterica; ATCC 14028; agar two-fold dilution, 37° C., 20 hours; read-out: MIC
Outline: as §1

[19] = system: Serratia marcescens ATCC 27117; assay: Antibacterial activity, MIC; format: cell-based; conditions: ATCC27117, ATCC 27117, agar two-fold dilution, 37° C., 20 hours, read-out: MIC
Outline: as §1

[20] = system: Shigella flexneri ATCC 11836; assay: Antibacterial activity, MIC; format: cell-based; conditions: ATCC11836, agar two-fold dilution, 37° C., 20 hours
Outline: as §1

[21] = system: Shigella sonnei ATCC 11060; assay: Antibacterial activity, MIC; format: cell-based; conditions: ATCC11060, ATCC 11060, agar two-fold dilution, 37° C., 20 hours, read-out: MIC
Outline: as §1

[22] = system: Staphylococcus aureus ATCC 10537; assay: Antibacterial activity, MIC; format: cell-based; conditions: ATCC10537, ATCC 10537, agar two-fold dilution, 37° C., 20 hours, read-out: MIC
Outline: as §1

[23] = system: Staphylococcus aureus ATCC 6538p; assay: Antibacterial activity, MIC; format: cell-based; conditions: ATCC6538P, ATCC 6538p, agar two-fold dilution, 37° C., 20 hours, read-out: MIC
Outline: as §1

[24] = system: Staphylococcus epidermidis ATCC 12228; assay: Antibacterial activity, MIC; format: cell-based; conditions: ATCC12228, ATCC 12228, agar two-fold dilution, 37° C., 20 hours, read-out: MIC
Outline: as §1

[25] = system: Streptococcus faecalis ATCC 29212; assay: Antibacterial activity, MIC; format: cell-based; conditions: Enterococcus faecalis, ATCC29212; ATCC 29212; agar two-fold dilution, 37° C., 20 hours; read-out: MIC
Outline: as §1

[26] = In-vivo absorbency (plasma concentrations & pharmacokinetic parameters); design: species or system SD rat (male); conditions: plasma, SD male rat, iv 20 mg/kg; for half-life: rat, iv, 20 mg/kg
Text: The blood samples from the femoral vein of the rats were taken every hour after administration, and analyzed by bio-assay(agar well method).
Tested animal: SD male Rat (220~340 g)

Pseudomonas = assay: Antibacterial activity; format: cell-based; conditions: statement in words
[27] = In-vivo absorbency (plasma concentrations & pharmacokinetic parameters); design: species or system SD rat (male); conditions: plasma, SD male rat, iv 20 mg/kg, read-out: Plasma Conc.

## CC(C)(O/N=C(\C(=O)NC1C(=O)N2C(C(=O)[O-])=C(CSc3nc(N)cc(N)[n+]3N)CS[C@H]12)c1csc(N)n1)C(=O)O (stereo partly shown) [Compound I-15, 7-[(Z)-2-(2-aminothiazol-4-yl)-2-(2-carboxyprop-2-oxyimino)acetamido]-3-(1,4,6-triaminopyrimidinium-2-yl) thiomethyl-3-cephem-4-carboxylate]
[1]
  MIC: 2 µg/mL (≈ 3.2 µM)
[2]
  MIC: 64 µg/mL (≈ 102 µM)
[3]
  MIC: 0.5 µg/mL (≈ 0.8 µM)
[4]
  MIC: 0.063 µg/mL (≈ 0.101 µM)
[5]
  MIC: 1 µg/mL (≈ 1.6 µM)
[6]
  MIC: 0.016 µg/mL (≈ 0.0256 µM)
[7]
  MIC: 0.063 µg/mL (≈ 0.101 µM)
[8]
  MIC: 0.063 µg/mL (≈ 0.101 µM)
[9]
  MIC: 0.063 µg/mL (≈ 0.101 µM)
[10]
  MIC: 0.25 µg/mL (≈ 0.4 µM)
[11]
  MIC: ≤ 0.008 µg/mL
[12]
  MIC: 0.016 µg/mL (≈ 0.0256 µM)
[13]
  MIC: 0.016 µg/mL (≈ 0.0256 µM)
[14]
  MIC: ≤ 0.008 µg/mL
[15]
  MIC: 1 µg/mL (≈ 1.6 µM)
[16]
  MIC: 1 µg/mL (≈ 1.6 µM)
[17]
  MIC: 1 µg/mL (≈ 1.6 µM)
[18]
  MIC: 0.13 µg/mL (≈ 0.208 µM)
[19]
  MIC: 0.063 µg/mL (≈ 0.101 µM)
[20]
  MIC: 0.031 µg/mL (≈ 0.0496 µM)
[21]
  MIC: 0.063 µg/mL (≈ 0.101 µM)
[22]
  MIC: 2 µg/mL (≈ 3.2 µM)
[23]
  MIC: 4 µg/mL (≈ 6.4 µM)
[24]
  MIC: 2 µg/mL (≈ 3.2 µM)
[25]
  MIC: > 128 µg/mL
[26]; 60 min, read-out: Plasma Conc.
  concentration at 1 h: 2400 ng/mL
[26]; 120 min, read-out: Plasma Conc.
  concentration at 2 h: 600 ng/mL
[26]; two compartment model
  AUC: 43400 ng·h/mL
[26]; two compartment model, read-out: T1/2 (α)
  half-life: 3 min
[26]; two compartment model, read-out: T1/2 (β)
  half-life: 29 min
Pseudomonas
  antibacterial activities, especially against Pseudomonas: excellent
[27]; 1 min
  concentration at 1 min: 148000 ng/mL
[27]; 2.5 min
  concentration at 2.5 min: 104000 ng/mL
[27]; 5 min
  concentration at 5 min: 71000 ng/mL
[27]; 10 min
  concentration at 10 min: 53000 ng/mL
[27]; 20 min
  concentration at 20 min: 22000 ng/mL
[27]; 40 min
  concentration at 40 min: 10000 ng/mL
